Experiments:
[1] = tested on: 48-G7 antibody (monoclonal IgG made against a p-nitrophenylphosphonate hapten); assay: 48-G7 antibody-catalyzed hydrolysis of p-nitrophenylcarbonate in AOT/iso-octane microemulsion, inhibition by transition state analog; type: biochemical; settings: 24 µM final concentration of inhibitor; 50 mM AOT in iso-octane, 888 µM p-NPC; uninhibited rate 0.00028 Abs/minute
Experimental: The rate of 48-G7 antibody-catalyzed hydrolysis of p-NPC was determined in a 50 mM solution of sodium bi-(2-ethylhexyl) sulfosuccinate ("AOT") in iso-octane containing 888 µM of p-NPC. First 20 ml of the iso-octane solution containing 0.445 g of AOT (M.W.=445g) and 3.5 mg of p-NPC (M.W.-197g) were prepared. To this solution […] (pH 8.5) and 10 µl of the 48-G7 antibody solution were added. A microemulsion of disperse aqueous phase in the iso-octane was obtained by mixing. The hydrolysis of p-NPC and the production of p-nitrophenol was monitored at 400 nm, although an accurate conversion between 400 nm absorbance and moles of p-nitrophenol formed was not possible because the pH inside the microemulsified aqueous phase particles could not be accurately determined.
Upon addition of the 48-G7 antibody solution, the biphasic system became turbid as the antibody-containing, microemulsified aqueous phase particles formed. Subsequently, absorbance at 400 nm began to increase as p-nitrophenol was formed. The rate of 400 nm absorbance increase was 0.00028 Abs/minute.
When this experiment was repeated with the 10 µl of tris buffer containing 2.4 mM p-nitrophosphonate hapten (24 µM final concentration), the initial 400 nm absorbance was similar to the non-inhibited antibody solution. […] Instead, the 400 nm absorbance continued to decrease. […]

[2] = tested on: 48-G7 antibody (monoclonal IgG made against a p-nitrophenylphosphonate hapten); assay: 48-G7 antibody-catalyzed hydrolysis of p-nitrophenylcarbonate in aqueous tris buffer, inhibition by transition state analog; type: biochemical; settings: 24 µM inhibitor, 90 µg/ml 48-G7, 10 mM tris buffer pH 8.5
Experimental: A solution of the 48-G7 antibody was purified from ascites fluid by Protein A chromatography. Following dialysis of the IgG fractions which were obtained into 10 mM tris buffer, 4.0 ml of a 3.0 mg/ml solution of this protein was lyophilyzed to dryness. The protein powder was then resuspended in 1.5 ml of 10 mM tris buffer (pH 8.5). When 10 µl of this antibody solution was added to one milliliter of buffer, a protein concentration of 0.090 mg/ml resulted (as determined from 280 nm and 260 nm absorbances). Thus, the stock antibody solution was 9.0 mg/ml.
The rate of antibody catalyzed hydrolysis of p-nitrophenylcarbonate was determined by adding 15 µl of a 50 mM p-nitrophenylcarbonate (p-NPC) solution dissolved in tetrahydrofuran to 3.0 ml of 10 mM tris buffer (pH 8.5). After this solution was mixed to homogeneity, 1.0 ml was transferred into a reference cuvette and 1.0 ml was transferred into a sample cuvette. An assay was initiated by addition of 10 µl of the 48-G7 antibody solution (0.090 mg). The progress of the reaction was monitored with a Hitachi Model 3200 double beam spectrophotometer (to screen out the rate of solvent-induced background hydrolysis) at 400 nm. The extinction coefficient for the product, p-nitrophenol, was 18,300 M^-1 cm^-1 at pH 8.5.

O=[N+]([O-])c1ccc(P(=O)(O)O)cc1 [p-nitrophenylphosphonate]
400 nm absorbance (p-nitrophenylcarbonate hydrolysis) in the presence of inhibitor [1]: did not rise
rate of hydrolysis of p-NPC in the presence of inhibitor ([2]; uninhibited rate 0.49 µmolar p-NPC per minute): 0.109 µM/min
rate of hydrolysis of p-NPC in the presence of inhibitor (400 nm absorbance) ([2]; uninhibited rate 0.0089 Abs/min): 0.002 Abs units/minute
